Data on 20 molecules can be found in patent US11560370B1, “5-membered heteroaryl carboxamide compounds for treatment of HBV” (Assembly Biosciences, Inc., priority 2018, dated 2023).

pEC50: −log10 of the molar value.

The subject of one assay is HBV. Kind of assay: Viral production from HepAD38 cells, viral load by qPCR of HBV core sequence. To be noted: 5 days, supernatant HBV DNA by qPCR, read-out: Viral Load EC50 Activity range. In kind it is cell-based. On the procedure:
Assay Measuring Activity of Test Compounds on Viral Production from HepAD38 Cells
HepAD38 cells grown in a T-150 flask (Corning, cat #: 430825) with Growth Medium (DMEM/F12 (1:1) (Hyclone, cat #: SH30023.02), 1× Pen/Strep (Invitrogen, cat #: 15140-122), 10% FBS (Tissue Culture Biologics, cat #: 101), 250 μg/mL G418 (Alfa Aesar, cat #: J62671), 1 μg/mL Tetracycline (Teknova, cat #: T3320)) were detached with 0.25% trypsin-EDTA to (Invitrogen, cat #: 25200-056). Tetracycline-free treatment medium (15 mL DMEM/F12 (1:1) 1× Pen/step, with 2% FBS, Tet-system approved (Clontech, cat #: 631106) were then added to mix, transferred into a 50 ml conical tube (Falcon, cat #: 21008-918,) and spun at 1300 rpm for 5 min. Pelleted cells were then re-suspended/washed with 50 mL of 1×DPBS (Invitrogen, cat #: 14190-136) 2 times and 50 mL treatment medium twice. HepAD38 cells were then re-suspended with 10 mL of treatment medium, syringed and counted. Wells of 96-well clear bottom TC plate (Corning, cat #: 3904,) were seeded at 50,000 cells/well in 180 μL of treatment medium, and 20 μL of either 10% DMSO (Sigma, cat #: D4540) as controls or a 10× solution of test compounds in 10% DMSO in treatment media was added for a final compound concentration starting at 10 μM, and plates were incubated in 5% CO2 incubator at 37° C. for 5 days.
Subsequently viral load production was assayed by quantitative PCR (qPCR) of the HBV core sequence. PCR reaction mixture containing forward primers HBV-f 5′-CTGTGCCTTGGGTGGCTTT-3′ (IDT DNA), Reverse primers HBV-r 5′-[…]-3′ (IDT DNA), Fluorescent TaqMan™ Probes HBV-probe 5′-FAM/AGCTCCAAA/ZEN/[…]/3IABkFQ-3′ (IDT DNA), 10 μL/well of PerfeCTa® qPCR ToughMix® (Quanta Biosciences, Cat #: 95114-05K), and 6 μL/well of DEPC water (Alfa Aesar, cat #: J62087) was prepared. […] of supernatant was added to 16 μL of the reaction mixture in a qPCR plate (Applied Biosytems, Cat #: 4309849), sealed with a film (Applied Biosystems, Cat #: 4311971), centrifuged for a few seconds, and subsequently run on an Applied Biosystems VIIA7. The PCR mixture was incubated at 45° C. for 5 min, then 95° C. for 10 min, followed by 40 cycles of 10 seconds at 95° C. and 20 seconds at 60° C. Viral load was quantified against known HBV DNA standards by using ViiA™ 7 Software. Viral load in the supernatant from wells with treated cells were compared against viral load in supernatant from DMSO control wells (>3 per plate). Cell viability assay was performed with CellTiter-Glo Luminescent Cell Viability Assay (Promega, cat #: G7573) with modification. Mixed appropriate amount of CellTiter-Glo (CTG) 1×DPBS in a 1:1 ratio, added 100 uL of the mixture to each well followed completely removal of all supernatant in each well without touching cell surface. Incubated the plate at room temperature for 10 min on an orbital shaker, and then read the plate with a plate reader (TECAN M1000 or Envision). EC50 or CC50 values were calculated through curve-fitting of the four-parameter nonlinear-logistic-regression model (GraphPad Prism or Dotmatics). CC50 values were all >10 μM.
In general terms: In qPCR the cycle at which signal appears reflects the starting amount.
What is called pEC50 is the negative decadic logarithm of the EC50, by convention in mol/L. With `Cn1nc(C2CCC(c3ccccc3)C2)c(C(=O)Nc2ccc(F)c(Cl)c2)c1N` (single isomer, unassigned) [AIA-202C, 5-Amino-N-(3-chloro-4-fluorophenyl)-1-methyl-3-(3-phenylcyclopentyl)-1H-pyrazole-4-carboxamide], the pEC50 is 5.00 to 6.30.
The same measure, in the same setting: the same measure for `Cn1nc(C2CCC(c3ccccc3)C2)c(C(=O)Nc2ccc(F)c(Cl)c2)c1N` (single isomer, unassigned) [AIA-202D, 5-Amino-N-(3-chloro-4-fluorophenyl)-1-methyl-3-(3-phenylcyclopentyl)-1H-pyrazole-4-carboxamide]: > 7.00; for `Cn1nc(C2CC(c3ccccc3)C2)c(C(=O)Nc2ccc(F)c(Cl)c2)c1N` (single isomer, unassigned) [AIA-224A, 5-Amino-N-(3-chloro-4-fluorophenyl)-1-methyl-3-(3-phenylcyclobutyl)-1H-pyrazole-4-carboxamide]: > 7.00; for `COc1ccccc1C1CCC(c2nn(C)c(N)c2C(=O)Nc2ccc(F)c(Cl)c2)C1` (single isomer, unassigned) [AIA-275B, 5-Amino-N-(3-chloro-4-fluorophenyl)-3-(3-(2-methoxyphenyl)cyclopentyl)-1-methyl-1H-pyrazole-4-carboxamide]: 6.30 to 7.00.
Take `COc1ccccc1C1CCC(c2nn(C)c(N)c2C(=O)Nc2ccc(F)c(Cl)c2)C1` (single isomer, unassigned) [AIA-275D, 5-Amino-N-(3-chloro-4-fluorophenyl)-3-(3-(2-methoxyphenyl)cyclopentyl)-1-methyl-1H-pyrazole-4-carboxamide]: the pEC50 was > 7.00.
Regarding `CC(C)OCC1(O)CC2CC(c3nn(C)c(N)c3C(=O)Nc3ccc(F)c(Cl)c3)CC2C1` (single isomer, unassigned) [AIA-339-1, 5-Amino-N-(3-chloro-4-fluorophenyl)-3-(5-hydroxy-5-(isopropoxymethyl)octahydropentalen-2-yl)-1-methyl-1H-pyrazole-4-carboxamide], the pEC50 was 5.00 to 6.30.
The same measure, in the same setting: the same measure for `CC(C)OCC1(O)CC2CC(c3nn(C)c(N)c3C(=O)Nc3ccc(F)c(Cl)c3)CC2C1` (single isomer, unassigned) [AIA-339-2, 5-Amino-N-(3-chloro-4-fluorophenyl)-3-(5-hydroxy-5-(isopropoxymethyl)octahydropentalen-2-yl)-1-methyl-1H-pyrazole-4-carboxamide]: 6.30 to 7.00.

Staying with this assay, now noted: Hepatitis B virus, HePAD38, 120 h, 5 days, supernatant HBV DNA by qPCR, read-out: Viral Load EC50 Activity range.
In the case of `Cn1nc(C2CC(c3ccccc3)C2)c(C(=O)Nc2ccc(F)c(Cl)c2)c1N` (single isomer, unassigned) [AIA-224B, 5-Amino-N-(3-chloro-4-fluorophenyl)-1-methyl-3-(3-phenylcyclobutyl)-1H-pyrazole-4-carboxamide], the pEC50 was 6.30 to 7.00.
Same read-out and setting: the same measure for `CCS(=O)(=O)CC1(O)CC2CC(c3nn(C)c(N)c3C(=O)Nc3ccc(F)c(Cl)c3)CC2C1` (single isomer, unassigned) [AIA-250-1, 5-Amino-N-(3-chloro-4-fluorophenyl)-3-(5-((ethylsulfonyl)nethyl)-5-hydroxyoctahydropentalen-2-yl)-1-methyl-1H-pyrazole-4-carboxamide]: > 7.00; for `Cn1nc(C2CC3CC(O)(CS(=O)(=O)C4CC4)CC3C2)c(C(=O)Nc2ccc(F)c(Cl)c2)c1N` (single isomer, unassigned) [AIA-252-2, 5-Amino-N-(3-chloro-4-fluorophenyl)-3-(5-((cyclopropylsulfonyl)methyl)-5-hydroxyortahydropentalen-2-yl)-1-methyl-1H-pyrazole-4-carboxamide]: > 7.00; for `CCC1OCC2(CC3CC(c4nn(C)c(N)c4C(=O)Nc4ccc(F)c(Cl)c4)CC3C2)O1` (single isomer, unassigned) [AIA-255-3, 5-Amino-N-(3-chloro-4-fluorophenyl)-3-(2′-ethylhexahydro-1H-spiro[pentalene-2,4′-[1,3]dioxolan]-5-yl)-1-methyl-1H-pyrazole-4-carboxamide]: > 7.00.
Consider `Cn1nc(C2CC3CC(O)(CSCC(F)(F)F)CC3C2)c(C(=O)Nc2ccc(F)c(Cl)c2)c1N` (single isomer, unassigned) [AIA-258-2, 5-Amino-N-(3-chloro-4-fluorophenyl)-3-(5-hydroxy-5-(((2,2,2-trifluoroethyl)thio)methyl)octahydropentalen-2-yl)-1-methyl-1H-pyrazole-4-carboxamide], for which the pEC50 was > 7.00.
As to `Cn1nc(C2CC3CC(O)(CS(=O)(=O)C(C)(C)C)CC3C2)c(C(=O)Nc2ccc(F)c(Cl)c2)c1N` (single isomer, unassigned) [AIA-260-1, 5-Amino-3-(5-((tert-butylsulfonyl)methyl)-5-hydroxyoctahydropentalen-2-yl)-N-(3-chloro-4-fluorophenyl)-1-methyl-1H-pyrazole-4-carboxamide], the pEC50 was > 7.00.
Turning to `Cn1nc(C2CC3CC(O)(CSC(C)(C)C)CC3C2)c(C(=O)Nc2ccc(F)c(Cl)c2)c1N` (single isomer, unassigned) [AIA-262-2, 5-Amino-3-(5-((tert-butylthio)methyl)-5-hydroxyoctahydropentalen-2-yl)-N-(3-chloro-4-fluorophenyl)-1-methyl-1H-pyrazole-4-carboxamide], the negative logarithm of the EC50 (pEC50) is > 7.00.
For `Cn1nc(C2CC3CC(O)(CS(=O)(=O)CCO)CC3C2)c(C(=O)Nc2ccc(F)c(Cl)c2)c1N` (single isomer, unassigned) [AIA-266-1, 5-Amino-N-(3-chloro-4-fluorophenyl)-3-(5-hydroxy-5-(((2-hydroxyethyl)sulfonyl)methyl)octahydropentalen-2-yl)-1-methyl-1H-pyrazole-4-carboxamide], the pEC50 is > 7.00.
As to `COc1ccccc1C1CCC(c2nn(C)c(N)c2C(=O)Nc2ccc(F)c(Cl)c2)C1` (single isomer, unassigned) [AIA-275A, 5-Amino-N-(3-chloro-4-fluorophenyl)-3-(3-(2-methoxyphenyl)cyclopentyl)-1-methyl-1H-pyrazole-4-carboxamide], the negative-log EC50 (pEC50) is 6.30 to 7.00.
Still for that read-out and setting: the same measure for `COc1cccc(C2CCC(c3nn(C)c(N)c3C(=O)Nc3ccc(F)c(Cl)c3)C2)c1` (single isomer, unassigned) [AIA-276D, 5-Amino-N-(3-chloro-4-fluorophenyl)-3-(3-(3-methoxyphenyl)cyclopentyl)-1-methyl-1H-pyrazole-4-carboxamide]: > 7.00.
Same read-out and setting: the same measure for `Cn1nc(C2CC3CC(O)(CSCCO)CC3C2)c(C(=O)Nc2ccc(F)c(Cl)c2)c1N` (single isomer, unassigned) [AIA-283-1, 5-Amino-N-(3-chloro-4-fluorophenyl)-3-(5-hydroxy-5-(((2-hydroxyethyl)thio)methyl)octahydropentalen-2-yl)-1-methyl-1H-pyrazole-4-carboxamide]: > 7.00; for `Cn1nc(C2CC3CC(O)(CSCCN4CCOCC4)CC3C2)c(C(=O)Nc2ccc(F)c(Cl)c2)c1N` (single isomer, unassigned) [AIA-284-1, 5-Amino-N-(3-chloro-4-fluorophenyl)-3-(5-hydroxy-5-(((2-morpholinoethyl)thio)methyl)octahydropentalen-2-yl)-1-methyl-1H-pyrazole-4-carboxamide]: > 7.00; for `Cn1nc(C2CC3CC(O)(CS(=O)(=O)CCCN4CCCCC4)CC3C2)c(C(=O)Nc2ccc(F)c(Cl)c2)c1N` (single isomer, unassigned) [AIA-349-b, 5-Amino-N-(3-chloro-4-fluorophenyl)-3-(5-hydroxy-5-(((3-(piperidin-1-yl)propyl)sulfonyl)methyl)octahydropentalen-2-yl)-1-methyl-1H-pyrazole-4-carboxamide]: 6.30 to 7.00.
